# Reference: paper PMC8371461 (Frontiers in Pharmacology, 2021)
# Legend:
# INSR = molecular target: T1, INSR (Homo sapiens, UniProt P06213); experiment: kinome scan; assay type: binding; conditions: 10 µM
# T1 construct: purchased DiscoverX (KINOMEscan)
# CSNK1A1 = molecular target: T2, CSNK1A1 (Homo sapiens, UniProt P48729); experiment: kinome scan; assay type: binding; conditions: 10 µM
# T2 construct: purchased DiscoverX (KINOMEscan)
# BLK = molecular target: T3, BLK (Homo sapiens, UniProt P51451); experiment: kinome scan; assay type: binding; conditions: 10 µM
# T3 construct: purchased DiscoverX (KINOMEscan)
# EGFR(L858RT790M) = molecular target: T4, EGFR(L858RT790M) (Homo sapiens, UniProt P00533, L858R/T790M); experiment: kinome scan; assay type: binding; conditions: 10 µM
# T4 construct: purchased DiscoverX (KINOMEscan)
# T4 sequence (P00533 669-1011 T790M/L858R limits assumed): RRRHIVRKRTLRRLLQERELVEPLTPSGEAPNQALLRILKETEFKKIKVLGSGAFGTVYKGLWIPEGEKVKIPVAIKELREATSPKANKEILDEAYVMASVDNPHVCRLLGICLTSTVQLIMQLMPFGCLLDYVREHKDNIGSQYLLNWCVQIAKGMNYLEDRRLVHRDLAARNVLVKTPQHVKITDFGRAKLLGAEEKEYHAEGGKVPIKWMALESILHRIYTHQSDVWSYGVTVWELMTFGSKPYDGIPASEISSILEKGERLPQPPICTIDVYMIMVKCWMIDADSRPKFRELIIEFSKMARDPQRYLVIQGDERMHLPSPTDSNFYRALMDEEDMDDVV
# CDK4-cyclinD3 = molecular target: T5, CDK4-cyclinD3 (Homo sapiens, UniProt P11802); experiment: kinome scan; assay type: binding; conditions: 10 µM
# T5 construct: purchased DiscoverX (KINOMEscan)
# MYO3A = molecular target: T6, MYO3A (Homo sapiens, UniProt Q8NEV4); experiment: kinome scan; assay type: binding; conditions: 10 µM
# T6 construct: purchased DiscoverX (KINOMEscan)
# TYK2 = TYK2 (Homo sapiens, UniProt P29597); experiment: Kd select analysis (DiscoverX); assay type: binding
# Protocol: Hits are identified by an ultra-sensitive quantitative PCR detecting the specific DNA tag linked to each kinase (Supplementary Figure S2). The drug is used at a concentration of 10 µM and results are expressed as the percentage of signal (kinase PCR detection) with respect to DMSO control conditions. […] Interactions between 0 and 20% of reduction were considered to be the most significant ones.
# YANK1 = molecular target: T7, YANK1 (Homo sapiens, UniProt Q8WU08); experiment: kinome scan; assay type: binding; conditions: 10 µM
# T7 construct: purchased DiscoverX (KINOMEscan)
# GSK3A = molecular target: T8, GSK3A (Homo sapiens, UniProt P49840); experiment: kinome scan; assay type: binding; conditions: 10 µM
# T8 construct: purchased DiscoverX (KINOMEscan)
# CSNK1D = molecular target: T9, CSNK1D (Homo sapiens, UniProt P48730); experiment: kinome scan; assay type: binding; conditions: 10 µM
# T9 construct: purchased DiscoverX (KINOMEscan)
# PKN2 = molecular target: T10, PKN2 (Homo sapiens, UniProt Q16513); experiment: kinome scan; assay type: binding; conditions: 10 µM
# T10 construct: purchased DiscoverX (KINOMEscan)
# [1] = molecular target: T11, TYK2(JH2domain-pseudokinase) (Homo sapiens, UniProt P29597); experiment: kinome scan; assay type: binding
# T11 construct: TYK2(JH2domain-pseudokinase); purchased DiscoverX (KINOMEscan)
# T11 sequence (P29597 556-888 limits assumed): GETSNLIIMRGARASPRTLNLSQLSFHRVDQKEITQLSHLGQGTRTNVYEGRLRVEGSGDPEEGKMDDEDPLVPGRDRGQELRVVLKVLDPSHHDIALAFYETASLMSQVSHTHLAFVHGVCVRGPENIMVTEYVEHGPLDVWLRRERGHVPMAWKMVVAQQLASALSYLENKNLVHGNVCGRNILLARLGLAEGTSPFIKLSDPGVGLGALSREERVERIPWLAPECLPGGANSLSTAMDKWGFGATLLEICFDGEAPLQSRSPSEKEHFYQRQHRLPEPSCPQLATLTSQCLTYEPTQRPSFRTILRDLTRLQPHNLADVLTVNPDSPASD
# [2] = molecular target: T12, JAK1(JH1domain-catalytic) (Homo sapiens, UniProt P23458); experiment: kinome scan; assay type: binding; conditions: 10 µM
# T12 construct: JAK1(JH1domain-catalytic); purchased DiscoverX (KINOMEscan)
# [3] = tested on: Cytochrome P450 3A4 isoform 1; parameters: method as in PubChem Bioassay ID 884; conditions: reported activity, data mining; ref PubChem Bioassay ID 884; cited from earlier work
# [4] = molecular target: T13, RSK4(Kin.Dom.1-N-terminal) (Homo sapiens, UniProt Q9UK32); experiment: kinome scan; assay type: binding; conditions: 10 µM
# T13 construct: RSK4(Kin.Dom.1-N-terminal); purchased DiscoverX (KINOMEscan)
# GRK7 = molecular target: T14, GRK7 (Homo sapiens, UniProt Q8WTQ7); experiment: kinome scan; assay type: binding; conditions: 10 µM
# T14 construct: purchased DiscoverX (KINOMEscan)
# TYRO3 = molecular target: T15, TYRO3 (Homo sapiens, UniProt Q06418); experiment: kinome scan; assay type: binding; conditions: 10 µM
# T15 construct: purchased DiscoverX (KINOMEscan)
# SLK = molecular target: T16, SLK (Homo sapiens, UniProt Q9H2G2); experiment: kinome scan; assay type: binding; conditions: 10 µM
# T16 construct: purchased DiscoverX (KINOMEscan)
# T16 sequence (Q9H2G2 whole entry): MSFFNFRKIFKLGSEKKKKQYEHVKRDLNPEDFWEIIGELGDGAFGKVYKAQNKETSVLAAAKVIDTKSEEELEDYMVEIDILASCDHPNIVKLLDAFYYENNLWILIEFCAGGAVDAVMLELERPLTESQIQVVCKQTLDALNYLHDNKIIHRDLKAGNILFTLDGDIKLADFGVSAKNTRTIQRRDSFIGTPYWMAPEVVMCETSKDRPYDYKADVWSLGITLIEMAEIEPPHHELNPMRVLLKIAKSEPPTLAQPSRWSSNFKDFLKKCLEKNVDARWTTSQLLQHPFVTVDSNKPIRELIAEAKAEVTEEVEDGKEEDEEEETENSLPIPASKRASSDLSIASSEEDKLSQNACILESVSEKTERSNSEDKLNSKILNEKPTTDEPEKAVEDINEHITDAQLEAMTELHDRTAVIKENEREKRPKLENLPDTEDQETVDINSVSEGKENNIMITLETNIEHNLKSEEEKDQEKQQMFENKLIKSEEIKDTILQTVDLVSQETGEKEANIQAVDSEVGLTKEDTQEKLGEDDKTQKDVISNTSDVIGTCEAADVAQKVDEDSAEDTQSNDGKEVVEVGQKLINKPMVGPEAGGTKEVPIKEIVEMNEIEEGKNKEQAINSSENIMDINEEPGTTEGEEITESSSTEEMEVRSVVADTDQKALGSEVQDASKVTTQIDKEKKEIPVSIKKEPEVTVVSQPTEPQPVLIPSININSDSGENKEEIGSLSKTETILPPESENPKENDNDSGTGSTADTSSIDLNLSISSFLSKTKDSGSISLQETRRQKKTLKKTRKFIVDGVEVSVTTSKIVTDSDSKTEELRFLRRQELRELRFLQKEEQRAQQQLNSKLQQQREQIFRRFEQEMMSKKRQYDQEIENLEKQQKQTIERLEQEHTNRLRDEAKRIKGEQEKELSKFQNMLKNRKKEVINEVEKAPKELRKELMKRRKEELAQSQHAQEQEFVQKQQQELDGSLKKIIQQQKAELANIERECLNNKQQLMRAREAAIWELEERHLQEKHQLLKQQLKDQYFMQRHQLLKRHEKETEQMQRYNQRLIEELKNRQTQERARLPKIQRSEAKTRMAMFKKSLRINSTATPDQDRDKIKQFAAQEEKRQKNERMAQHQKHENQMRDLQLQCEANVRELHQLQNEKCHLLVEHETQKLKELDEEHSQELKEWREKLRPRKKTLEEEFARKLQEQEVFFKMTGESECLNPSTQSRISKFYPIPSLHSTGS
# BIKE = molecular target: T17, BIKE (Homo sapiens, UniProt Q9NSY1); experiment: kinome scan; assay type: binding; conditions: 10 µM
# T17 construct: purchased DiscoverX (KINOMEscan)
# RET(V804L) = molecular target: T18, RET(V804L) (Homo sapiens, UniProt P07949, V804L); experiment: kinome scan; assay type: binding; conditions: 10 µM
# T18 construct: purchased DiscoverX (KINOMEscan)
# T18 sequence (P07949 29-1114 V804L): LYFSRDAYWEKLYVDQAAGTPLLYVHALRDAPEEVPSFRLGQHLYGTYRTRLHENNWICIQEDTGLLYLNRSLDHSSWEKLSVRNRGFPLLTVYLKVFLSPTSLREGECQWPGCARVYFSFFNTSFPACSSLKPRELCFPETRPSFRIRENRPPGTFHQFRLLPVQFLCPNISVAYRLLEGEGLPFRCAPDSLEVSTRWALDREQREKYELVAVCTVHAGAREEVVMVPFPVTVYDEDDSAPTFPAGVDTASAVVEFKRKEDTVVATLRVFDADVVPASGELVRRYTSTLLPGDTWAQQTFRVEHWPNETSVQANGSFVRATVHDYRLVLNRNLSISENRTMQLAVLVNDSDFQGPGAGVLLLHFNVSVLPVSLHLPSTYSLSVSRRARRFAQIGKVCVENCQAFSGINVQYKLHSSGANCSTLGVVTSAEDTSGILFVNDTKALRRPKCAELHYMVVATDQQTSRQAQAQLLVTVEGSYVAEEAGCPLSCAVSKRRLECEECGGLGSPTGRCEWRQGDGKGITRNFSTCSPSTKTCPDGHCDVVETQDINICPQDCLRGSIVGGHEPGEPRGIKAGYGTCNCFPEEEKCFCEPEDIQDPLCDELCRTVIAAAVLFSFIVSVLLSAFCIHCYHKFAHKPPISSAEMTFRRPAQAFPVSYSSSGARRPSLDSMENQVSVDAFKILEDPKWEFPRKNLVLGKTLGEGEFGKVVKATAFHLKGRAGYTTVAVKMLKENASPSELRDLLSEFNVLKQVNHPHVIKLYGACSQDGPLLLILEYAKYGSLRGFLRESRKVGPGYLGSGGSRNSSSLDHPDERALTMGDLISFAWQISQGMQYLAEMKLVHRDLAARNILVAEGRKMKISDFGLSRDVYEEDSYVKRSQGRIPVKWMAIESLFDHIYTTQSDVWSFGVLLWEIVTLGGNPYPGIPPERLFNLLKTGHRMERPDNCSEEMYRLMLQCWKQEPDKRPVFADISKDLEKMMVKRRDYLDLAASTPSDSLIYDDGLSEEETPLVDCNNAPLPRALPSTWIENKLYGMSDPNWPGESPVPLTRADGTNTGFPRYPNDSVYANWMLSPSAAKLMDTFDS
# ACVR2B = molecular target: T19, ACVR2B (Homo sapiens, UniProt Q13705); experiment: kinome scan; assay type: binding; conditions: 10 µM
# T19 construct: purchased DiscoverX (KINOMEscan)
# TIE1 = molecular target: T20, TIE1 (Homo sapiens, UniProt P35590); experiment: kinome scan; assay type: binding; conditions: 10 µM
# T20 construct: purchased DiscoverX (KINOMEscan)
# TAOK2 = molecular target: T21, TAOK2 (Homo sapiens, UniProt Q9UL54); experiment: kinome scan; assay type: binding; conditions: 10 µM
# T21 construct: purchased DiscoverX (KINOMEscan)
# PRKD1 = molecular target: T22, PRKD1 (Homo sapiens, UniProt Q15139); experiment: kinome scan; assay type: binding; conditions: 10 µM
# T22 construct: purchased DiscoverX (KINOMEscan)
# CAMK2B = molecular target: T23, CAMK2B (Homo sapiens, UniProt Q13554); experiment: kinome scan; assay type: binding; conditions: 10 µM
# T23 construct: purchased DiscoverX (KINOMEscan)
# SYK = molecular target: T24, SYK (Homo sapiens, UniProt P43405); experiment: kinome scan; assay type: binding; conditions: 10 µM
# T24 construct: purchased DiscoverX (KINOMEscan)
# PAK4 = molecular target: T25, PAK4 (Homo sapiens, UniProt O96013); experiment: kinome scan; assay type: binding; conditions: 10 µM
# T25 construct: purchased DiscoverX (KINOMEscan)
# T25 sequence (O96013 whole entry): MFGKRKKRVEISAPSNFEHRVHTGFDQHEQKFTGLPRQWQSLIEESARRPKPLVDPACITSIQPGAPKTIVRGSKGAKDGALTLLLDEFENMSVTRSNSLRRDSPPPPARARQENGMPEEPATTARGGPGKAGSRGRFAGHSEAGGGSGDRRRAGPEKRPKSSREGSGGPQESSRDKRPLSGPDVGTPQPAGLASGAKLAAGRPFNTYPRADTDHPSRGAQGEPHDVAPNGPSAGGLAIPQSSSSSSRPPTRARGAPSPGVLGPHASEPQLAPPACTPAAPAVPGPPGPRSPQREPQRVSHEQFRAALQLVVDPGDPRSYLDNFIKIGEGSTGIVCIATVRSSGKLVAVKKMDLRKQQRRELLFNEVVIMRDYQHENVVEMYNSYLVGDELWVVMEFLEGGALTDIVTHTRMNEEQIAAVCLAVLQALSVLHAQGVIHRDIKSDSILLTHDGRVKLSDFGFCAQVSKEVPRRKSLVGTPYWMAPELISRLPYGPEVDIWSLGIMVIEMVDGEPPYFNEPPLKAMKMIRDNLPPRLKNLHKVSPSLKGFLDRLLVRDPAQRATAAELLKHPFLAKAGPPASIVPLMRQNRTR
# ABL2 = molecular target: T26, ABL2 (Homo sapiens, UniProt P42684); experiment: kinome scan; assay type: binding; conditions: 10 µM
# T26 construct: purchased DiscoverX (KINOMEscan)
# PIP5K2B = molecular target: T27, PIP5K2B (Homo sapiens, UniProt P78356); experiment: kinome scan; assay type: binding; conditions: 10 µM
# T27 construct: purchased DiscoverX (KINOMEscan)
# RET(V804M) = molecular target: T28, RET(V804M) (Homo sapiens, UniProt P07949, V804M); experiment: kinome scan; assay type: binding; conditions: 10 µM
# T28 construct: purchased DiscoverX (KINOMEscan)
# T28 sequence (P07949 29-1114 V804M): as the sequence (P07949 29-1114 V804L) above, with L776M counted along it
# RAF1 = molecular target: T29, RAF1 (Homo sapiens, UniProt P04049); experiment: kinome scan; assay type: binding; conditions: 10 µM
# T29 construct: purchased DiscoverX (KINOMEscan)
# MARK1 = molecular target: T30, MARK1 (Homo sapiens, UniProt Q9P0L2); experiment: kinome scan; assay type: binding; conditions: 10 µM
# T30 construct: purchased DiscoverX (KINOMEscan)
# EGFR(L747-T751delSins) = experiment: kinome scan; assay type: binding, human; conditions: 10 µM
# EGFR(E746-A750del) = molecular target: T31, EGFR(E746-A750del) (Homo sapiens, UniProt P00533, DEL746-750); experiment: kinome scan; assay type: binding; conditions: 10 µM
# T31 construct: purchased DiscoverX (KINOMEscan)
# PDGFRA = molecular target: T32, PDGFRA (Homo sapiens, UniProt P16234); experiment: kinome scan; assay type: binding; conditions: 10 µM
# T32 construct: purchased DiscoverX (KINOMEscan)
# LATS1 = molecular target: T33, LATS1 (Homo sapiens, UniProt O95835); experiment: kinome scan; assay type: binding; conditions: 10 µM
# T33 construct: purchased DiscoverX (KINOMEscan)
# BMPR2 = molecular target: T34, BMPR2 (Homo sapiens, UniProt Q13873); experiment: kinome scan; assay type: binding; conditions: 10 µM
# T34 construct: purchased DiscoverX (KINOMEscan)
# DYRK1A = molecular target: T35, DYRK1A (Homo sapiens, UniProt Q13627); experiment: kinome scan; assay type: binding; conditions: 10 µM
# T35 construct: purchased DiscoverX (KINOMEscan)
# MYLK = molecular target: T36, MYLK (Homo sapiens, UniProt Q15746); experiment: kinome scan; assay type: binding; conditions: 10 µM
# T36 construct: purchased DiscoverX (KINOMEscan)
# PLK2 = molecular target: T37, PLK2 (Homo sapiens, UniProt Q9NYY3); experiment: kinome scan; assay type: binding; conditions: 10 µM
# T37 construct: purchased DiscoverX (KINOMEscan)
# EGFR(L747-S752delP753S) = molecular target: T38, EGFR(L747-S752delP753S) (Homo sapiens, UniProt P00533, DEL747-752/P753S); experiment: kinome scan; assay type: binding; conditions: 10 µM
# T38 construct: purchased DiscoverX (KINOMEscan)
# T1 sequence (P06213 28-1382): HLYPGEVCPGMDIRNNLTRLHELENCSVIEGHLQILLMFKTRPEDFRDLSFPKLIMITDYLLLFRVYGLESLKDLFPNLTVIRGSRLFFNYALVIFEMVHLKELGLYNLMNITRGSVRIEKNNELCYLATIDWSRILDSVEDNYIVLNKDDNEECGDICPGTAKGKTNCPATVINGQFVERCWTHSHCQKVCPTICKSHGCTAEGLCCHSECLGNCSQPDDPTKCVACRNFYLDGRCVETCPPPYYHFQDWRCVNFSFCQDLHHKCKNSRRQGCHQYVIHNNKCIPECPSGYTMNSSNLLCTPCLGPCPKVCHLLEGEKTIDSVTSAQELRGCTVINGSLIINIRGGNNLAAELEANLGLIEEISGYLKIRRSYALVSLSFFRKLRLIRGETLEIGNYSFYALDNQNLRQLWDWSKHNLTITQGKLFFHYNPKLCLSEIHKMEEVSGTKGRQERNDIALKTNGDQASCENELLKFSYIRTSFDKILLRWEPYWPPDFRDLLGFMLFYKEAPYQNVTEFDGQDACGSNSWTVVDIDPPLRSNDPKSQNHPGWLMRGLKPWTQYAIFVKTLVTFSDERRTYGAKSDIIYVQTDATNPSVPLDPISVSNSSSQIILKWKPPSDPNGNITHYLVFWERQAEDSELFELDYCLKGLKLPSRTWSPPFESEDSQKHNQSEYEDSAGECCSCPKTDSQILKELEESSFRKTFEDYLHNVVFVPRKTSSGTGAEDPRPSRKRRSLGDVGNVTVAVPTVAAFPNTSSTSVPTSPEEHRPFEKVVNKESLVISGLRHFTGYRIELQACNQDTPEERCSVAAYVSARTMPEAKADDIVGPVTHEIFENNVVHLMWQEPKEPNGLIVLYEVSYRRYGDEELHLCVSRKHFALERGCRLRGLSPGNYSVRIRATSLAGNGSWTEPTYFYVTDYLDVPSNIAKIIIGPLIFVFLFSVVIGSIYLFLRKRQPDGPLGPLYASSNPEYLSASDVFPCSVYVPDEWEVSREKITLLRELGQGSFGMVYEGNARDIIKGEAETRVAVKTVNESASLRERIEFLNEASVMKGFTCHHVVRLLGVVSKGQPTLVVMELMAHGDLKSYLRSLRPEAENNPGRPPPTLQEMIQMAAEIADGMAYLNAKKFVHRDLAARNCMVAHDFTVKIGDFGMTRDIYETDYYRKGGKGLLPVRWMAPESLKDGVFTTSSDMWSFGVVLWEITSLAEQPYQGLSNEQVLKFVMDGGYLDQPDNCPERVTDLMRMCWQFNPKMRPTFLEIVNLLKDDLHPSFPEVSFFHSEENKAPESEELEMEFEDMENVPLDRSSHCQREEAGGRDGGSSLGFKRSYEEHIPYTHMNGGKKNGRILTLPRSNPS
structure (smiles),measurement,setting,value
"Nc1ccc(N=Nc2ccccc2)c(N)n1 [phenazopyridine, 2,6-diamino-3-(phenylazo)pyridine]",kinase inhibition,INSR,75
same,kinase inhibition,CSNK1A1,85
same,remaining binding (% of control),BLK,100
same,kinase inhibition,EGFR(L858RT790M),100
same,kinase inhibition,CDK4-cyclinD3,100
same,kinase inhibition,MYO3A,100
same,Kd,TYK2,26 µM
same,kinase inhibition,YANK1,98
same,kinase inhibition,GSK3A,100
same,kinase inhibition,CSNK1D,50
same,kinase inhibition,PKN2,100
same,remaining binding (% of control),"[1]; TYK2(JH2domain-pseudokinase), 10 µM",16
same,remaining binding at 10 µM,"[1]; TYK2 as printed (Table S4: JH2domain-pseudokinase), read-out: % Of control",16%
same,kinase inhibition,[2],97
same,Concentration,[3],0.1 µM
same,kinase inhibition,[4],86
same,kinase inhibition,GRK7,100
same,kinase inhibition,TYRO3,94
same,kinase inhibition,SLK,100
same,kinase inhibition,BIKE,99
same,kinase inhibition,RET(V804L),100
same,kinase inhibition,ACVR2B,84
same,kinase inhibition,TIE1,91
same,kinase inhibition,TAOK2,91
same,kinase inhibition,PRKD1,100
same,kinase inhibition,CAMK2B,100
same,kinase inhibition,SYK,100
same,kinase inhibition,PAK4,100
same,kinase inhibition,ABL2,96
same,kinase inhibition,PIP5K2B,97
same,remaining binding (% of control),RET(V804M),100
same,kinase inhibition,RAF1,100
same,kinase inhibition,MARK1,95
same,kinase inhibition,EGFR(L747-T751delSins),80
same,remaining binding (% of control),EGFR(E746-A750del),69
same,kinase inhibition,PDGFRA,38
same,kinase inhibition,LATS1,87
same,kinase inhibition,BMPR2,97
same,remaining binding (% of control),DYRK1A,73
same,kinase inhibition,MYLK,100
same,% of control (remaining binding),PLK2,92
same,kinase inhibition,EGFR(L747-S752delP753S),73
